Source: publication PMC8205226, “HIV-1 Integrase Inhibitors with Modifications That Affect Their Potencies against Drug Resistant Integrase Mutants” (ACS Infectious Diseases, 2021)
Read-outs that look alike come from different tables or passages of the source.

What was measured:
[1] = tested on: HIV-1 IN mutant Y143R; test: single-round infectivity assay, Y143R IN mutant; type: cell-based; conditions: for ratio of the EC50s (our compound relative to DTG) against Y143R: EC50 compound / EC50 DTG
Experimental: (§1) Figure 2 Antiviral activities of the new compounds against RAL-resistant mutants. The EC50 values were determined using a vector that carries WT HIV-1 IN and the RAL-resistant mutants in a single round infection assay. […] Error bars represent the standard deviations of independent experiments, n = 4, performed in triplicate. The graph has a maximum value of 550 nM.
(§2) WT and mutant HIV-1 viral vectors were used in single-round infectivity assays to determine the antiviral potencies (EC50 values) of the compounds and the effects of the mutants on the EC50 values as previously described.[30],[54] Single round infectivity measurements were determined as done previously.[38]
(§3) The vector pNLNgoMIVR-ΔENV.LUC has been described previously.[26] To produce the new IN mutants used in this study, the IN open reading frame was removed from pNLNgoMIVR-ΔENV.LUC by digestion with KpnI and SalI, and the resulting fragment was inserted between the KpnI and SalI sites of pBluescript KS+. Using that construct as the wild-type template, we prepared the following HIV-1 IN mutants using the QuikChange II XL site directed mutagenesis kit (Agilent Technologies, Santa Clara, CA) protocol: N117A, N117H, P142A, P142H, P142S, Y143C, Y143H, S230R, R231G, and R231K. The following sense oligonucleotides were used with matching cognate antisense oligonucleotides (not shown) (Integrated DNA Technologies, Coralville, IA) in the mutagenesis: N117A, 5′-[…]-3′; N117H, 5′-[…]-3′; P142A, 5′-[…]-3′; P142H, 5′-[…]-3′; P142S, 5′-[…]-3′; Y143C, 5′- […]-3′; Y143H, 5′-[…]-3′; S230R, 5′- […]-3′; R231G, 5′-[…]-3′; R231K, 5′-[…]-3′.

[2] = tested on: HIV-1 IN mutant N155H; test: single-round infectivity assay, N155H IN mutant; type: cell-based; conditions: for ratio of the EC50s (our compound relative to DTG) against N155H: EC50 compound / EC50 DTG
Experimental: as §1, §2, §3

[3] = tested on: HIV-1 IN double mutant G140S/Q148H; test: single-round infectivity assay, G140S/Q148H IN double mutant; type: cell-based; conditions: for ratio of the EC50s (our compound relative to DTG) against G140S/Q148H: EC50 compound / EC50 DTG
Experimental: as §1, §2, §3

[4] = tested on: HIV-1 IN mutant N117A; test: single-round infectivity assay, N117A IN mutant; type: cell-based; conditions: for EC50: Human immunodeficiency virus 1, read-out: EC50 values N117A; for FC N117A: fold change in EC50, IN mutant versus WT HIV-1
Experimental: (§4) The EC50 values were determined using a vector that carries the IN mutant in a single round infection assay. […] Error bars represent the standard deviations of independent experiments, n = 4, performed in triplicate.
as §2, §3

[5] = tested on: HIV-1 IN mutant N117H; test: single-round infectivity assay, N117H IN mutant; type: cell-based; conditions: for ratio of the EC50s (our compound relative to DTG) against N117H: EC50 compound / EC50 DTG; for EC50: Human immunodeficiency virus 1, read-out: EC50 values N117H; for FC N117H: fold change in EC50, IN mutant versus WT HIV-1
Experimental: as §4, §2, §3

[6] = tested on: HIV-1 IN mutant G118R; test: single-round infectivity assay, G118R IN mutant; type: cell-based; conditions: for ratio of the EC50s (our compound relative to DTG) against G118R: EC50 compound / EC50 DTG
Experimental: as §4, §2, §3

[7] = tested on: HIV-1 IN mutant S119R; test: single-round infectivity assay, S119R IN mutant; type: cell-based; conditions: for ratio of the EC50s (our compound relative to DTG) against S119R: EC50 compound / EC50 DTG; for EC50: Human immunodeficiency virus 1, read-out: EC50 values S119R; for FC S119R: fold change in EC50, IN mutant versus WT HIV-1
Experimental: as §4, §2, §3

[8] = tested on: HIV-1 IN mutant Y143C; test: single-round infectivity assay, Y143C IN mutant; type: cell-based; conditions: for ratio of the EC50s (our compound relative to DTG) against Y143C: EC50 compound / EC50 DTG; for FC Y143C: fold change in EC50, IN mutant versus WT HIV-1
Experimental: as §4, with “Figure 4 Mutations in the β5-α3 loop affect the antiviral potencies of the new compounds. The” for “The”
as §2, §3

[9] = tested on: HIV-1 IN mutant Y143H; test: single-round infectivity assay, Y143H IN mutant; type: cell-based; conditions: for ratio of the EC50s (our compound relative to DTG) against Y143H: EC50 compound / EC50 DTG; for FC Y143H: fold change in EC50, IN mutant versus WT HIV-1
Experimental: as §4, with “Figure 4 Mutations in the β5-α3 loop affect the antiviral potencies of the new compounds. The” for “The”
as §2, §3

[10] = tested on: HIV-1 IN mutant P142A; test: single-round infectivity assay, P142A IN mutant; type: cell-based; conditions: for ratio of the EC50s (our compound relative to DTG) against P142A: EC50 compound / EC50 DTG; for EC50: Human immunodeficiency virus 1, read-out: EC50 values P142A; for FC P142A: fold change in EC50, IN mutant versus WT HIV-1
Experimental: as §4, with “Figure 4 Mutations in the β5-α3 loop affect the antiviral potencies of the new compounds. The” for “The”
as §2, §3

[11] = tested on: HIV-1 IN mutant P142H; test: single-round infectivity assay, P142H IN mutant; type: cell-based; conditions: for ratio of the EC50s (our compound relative to DTG) against P142H: EC50 compound / EC50 DTG; for EC50: Human immunodeficiency virus 1, read-out: EC50 values P142H; for FC P142H: fold change in EC50, IN mutant versus WT HIV-1
Experimental: as §4
Single round infectivity measurements were determined as done previously.[38]
as §3

[12] = tested on: HIV-1 IN mutant P142S; test: single-round infectivity assay, P142S IN mutant; type: cell-based; conditions: for ratio of the EC50s (our compound relative to DTG) against P142S: EC50 compound / EC50 DTG; for EC50: Human immunodeficiency virus 1, read-out: EC50 values P142S; for FC P142S: fold change in EC50, IN mutant versus WT HIV-1
Experimental: as §4, with “Figure 4 Mutations in the β5-α3 loop affect the antiviral potencies of the new compounds. The” for “The”
as §2, §3

[13] = tested on: HIV-1 IN mutant S230R; test: single-round infectivity assay, S230R IN mutant; type: cell-based; conditions: for ratio of the EC50s (our compound relative to DTG) against S230R: EC50 compound / EC50 DTG; for EC50: Human immunodeficiency virus 1, read-out: EC50 values S230R; for FC S230R: fold change in EC50, IN mutant versus WT HIV-1
Experimental: as §4, with “Figure 5 Antiviral potencies of the new compounds against IN with mutations in the […]. The” for “The”
as §2, §3

[14] = tested on: HIV-1 IN mutant R231G; test: single-round infectivity assay, R231G IN mutant; type: cell-based; conditions: for ratio of the EC50s (our compound relative to DTG) against R231G: EC50 compound / EC50 DTG; for EC50: Human immunodeficiency virus 1, read-out: EC50 values R231G; for FC R231G: fold change in EC50, IN mutant versus WT HIV-1
Experimental: as §4, with “Figure 5 Antiviral potencies of the new compounds against IN with mutations in the […]. The” for “The”
as §2, §3

[15] = tested on: HIV-1 IN mutant R231K; test: single-round infectivity assay, R231K IN mutant; type: cell-based; conditions: for ratio of the EC50s (our compound relative to DTG) against R231K: EC50 compound / EC50 DTG
Experimental: as §4, with “Figure 5 Antiviral potencies of the new compounds against IN with mutations in the […]. The” for “The”
as §2, §3

[16] = tested on: WT HIV-1; conditions: vector carrying WT HIV-1 IN, single round infection; previously reported; cited from earlier work
[17] = tested on: HIV-1 IN double mutant G140S/Q148H; conditions: single round infection; previously reported; cited from earlier work
[18] = tested on: HIV-1 IN mutant G118R; conditions: single round infection; previously shown; cited from earlier work
[19] = tested on: HIV-1 IN mutant Y143R; conditions: single round infection; previously reported; cited from earlier work
[20] = tested on: HIV-1 IN mutant N155H; conditions: single round infection; previously reported; cited from earlier work
[21] = fold change in EC50, IN mutant versus WT HIV-1
[22] = Human immunodeficiency virus 1, read-out: EC50 values Y143C, single round infection, n = 4
[23] = Human immunodeficiency virus 1, read-out: EC50 values Y143H, single round infection, n = 4
[24] = Human immunodeficiency virus 1, read-out: EC50 values R231K, single round infection, n = 4

Nc1c(C(=O)NCc2ccc(F)cc2F)c(=O)n(O)c2ncc(CCS(=O)(=O)c3ccccc3)cc12 [4f]
ratio of the EC50s (our compound relative to DTG) against Y143R [1]: 0.1
ratio of the EC50s (our compound relative to DTG) against N155H [2]: 0.6
ratio of the EC50s (our compound relative to DTG) against G140S/Q148H [3]: 0.9
EC50 [4]: 0.8 nM
FC N117A [4]: 0.4
ratio of the EC50s (our compound relative to DTG) against N117H [5]: 1.1
EC50 [5]: 2.7 nM
FC N117H [5]: 1.4
ratio of the EC50s (our compound relative to DTG) against G118R [6]: 0.9
FC G118R [6, 21]: 5.7
ratio of the EC50s (our compound relative to DTG) against S119R [7]: 1.1
EC50 [7]: 2.6 ± 0.4 nM
FC S119R [7]: 1.3
ratio of the EC50s (our compound relative to DTG) against Y143C [8]: 1.2
EC50 [8, 22]: 1.7 ± 0.4 nM
FC Y143C [8]: 0.9
EC50 ([8]; read-out: EC50 values Y143C, single round infection, n = 4): < 3 nM
ratio of the EC50s (our compound relative to DTG) against Y143H [9]: 1.0
EC50 [9, 23]: 2.3 ± 0.1 nM
FC Y143H [9]: 1.2
EC50 ([9]; read-out: EC50 values Y143H, single round infection, n = 4): < 3 nM
ratio of the EC50s (our compound relative to DTG) against P142A [10]: 1.1
EC50 [10]: 2.8 ± 0.1 nM
FC P142A [10]: 1.4
ratio of the EC50s (our compound relative to DTG) against P142H [11]: 0.6
EC50 [11]: 1.7 ± 0.2 nM
FC P142H [11]: 0.9
ratio of the EC50s (our compound relative to DTG) against P142S [12]: 0.7
EC50 [12]: 1.5 ± 0.3 nM
FC P142S [12]: 0.8
ratio of the EC50s (our compound relative to DTG) against S230R [13]: 1.0
EC50 [13]: 4.8 ± 0.3 nM
FC S230R [13]: 2.4
ratio of the EC50s (our compound relative to DTG) against R231G [14]: 1.4
EC50 [14]: 2 ± 0.2 nM
FC R231G [14]: 1.0
ratio of the EC50s (our compound relative to DTG) against R231K [15]: 0.8
EC50 [15, 24]: 3.3 ± 0.2 nM
EC50 ([15]; read-out: EC50 values R231K, single round infection, n = 4): < 5 nM
EC50 [16]: 2 ± 0.1 nM
EC50 [17]: 5.2 ± 0.3 nM
EC50 [18]: 11.4 ± 3.5 nM

COC(=O)CNc1c(C(=O)NCc2ccc(F)cc2F)c(=O)n(O)c2ncccc12 [5′g]
ratio of the EC50s (our compound relative to DTG) against Y143R [1]: 1.1
FC Y143R [1, 21]: 1.2
ratio of the EC50s (our compound relative to DTG) against N155H [2]: 5.3
FC N155H [2, 21]: 5.0
ratio of the EC50s (our compound relative to DTG) against G140S/Q148H [3]: 6.1
FC G140S/Q148H [3, 21]: 9.3
ratio of the EC50s (our compound relative to DTG) against N117A ([4]; EC50 compound / EC50 DTG): 2.4
EC50 [4]: 1.2 ± 0.2 nM
FC N117A [4]: 0.3
ratio of the EC50s (our compound relative to DTG) against N117H [5]: 2.3
EC50 [5]: 5.6 ± 0.9 nM
FC N117H [5]: 1.5
ratio of the EC50s (our compound relative to DTG) against G118R [6]: 13.1
EC50 ([6]; Human immunodeficiency virus 1, read-out: EC50 values G118R): 171 ± 3.2 nM
ratio of the EC50s (our compound relative to DTG) against S119R [7]: 9.7
EC50 [7]: 22.3 ± 1.7 nM
FC S119R [7]: 5.9
ratio of the EC50s (our compound relative to DTG) against Y143C [8]: 28.1
EC50 [8, 22]: 39.3 ± 7.3 nM
FC Y143C [8]: 10.3
ratio of the EC50s (our compound relative to DTG) against Y143H [9]: 3.6
EC50 [9, 23]: 7.9 ± 1 nM
FC Y143H [9]: 2.1
ratio of the EC50s (our compound relative to DTG) against P142A [10]: 5.6
EC50 [10]: 14.1 ± 0.3 nM
FC P142A [10]: 3.7
ratio of the EC50s (our compound relative to DTG) against P142H [11]: 4.6
EC50 [11]: 12.8 ± 2.9 nM
FC P142H [11]: 3.4
ratio of the EC50s (our compound relative to DTG) against P142S [12]: 12.4
EC50 [12]: 27.2 ± 4.4 nM
FC P142S [12]: 7.2
ratio of the EC50s (our compound relative to DTG) against S230R [13]: 1.0
EC50 [13]: 4.5 ± 1.5 nM
FC S230R [13]: 1.2
ratio of the EC50s (our compound relative to DTG) against R231G [14]: 6.9
EC50 [14]: 9.7 ± 2.4 nM
FC R231G [14]: 2.6
ratio of the EC50s (our compound relative to DTG) against R231K [15]: 2.2
EC50 [15, 24]: 9.2 ± 2.1 nM
FC R231K [15, 21]: 2.4
EC50 [16]: 3.8 ± 1.2 nM
EC50 [19]: 4.6 ± 2.2 nM
EC50 [20]: 19 ± 6.9 nM
EC50 [17]: 35.5 ± 15.9 nM
